Assay results from ChEMBL document CHEMBL4138146, “A Schmidt rearrangement-mediated synthesis of novel tetrahydro-benzo[1,4]diazepin-5-ones as potential anticancer and antiprotozoal agents” (Eur J Med Chem, 2017).

Experiments:
Assay type in all cases: functional
[1] = tested on: EKVX; experiment: Growth inhibition of human EKVX cells assessed as cell growth at 10^-8 M incubated for 48 hrs by sulforhodamine B assay relative to control; details: read-out: Activity
[2] = tested on: NCI-H460; experiment: Growth inhibition of human NCI-H460 cells assessed as cell growth at 10^-8 M incubated for 48 hrs by sulforhodamine B assay relative to control; details: NCI-H460, 48 h, read-out: Activity
[3] = tested on: HCT-15; experiment: Growth inhibition of human HCT15 cells assessed as cell growth at 10^-8 M incubated for 48 hrs by sulforhodamine B assay relative to control; details: HCT-15, 48 h, read-out: Activity
[4] = tested on: KM12; experiment: Growth inhibition of human KM12 cells assessed as cell growth at 10^-8 M incubated for 48 hrs by sulforhodamine B assay relative to control; details: KM12, 48 h, read-out: Activity
[5] = tested on: Malme-3M; experiment: Growth inhibition of human MALME-3M cells assessed as cell growth at 10^-8 M incubated for 48 hrs by sulforhodamine B assay relative to control; details: read-out: Activity
[6] = tested on: OVCAR-3; experiment: Growth inhibition of human OVCAR3 cells assessed as cell growth at 10^-8 M incubated for 48 hrs by sulforhodamine B assay relative to control; details: OVCAR-3, 48 h, read-out: Activity
[7] = tested on: OVCAR-5; experiment: Growth inhibition of human OVCAR5 cells assessed as cell growth at 10^-8 M incubated for 48 hrs by sulforhodamine B assay relative to control; details: OVCAR-5, 48 h, read-out: Activity
[8] = tested on: RPMI-8226; experiment: Growth inhibition of human RPMI8226 cells assessed as cell growth at 10^-7 M incubated for 48 hrs by sulforhodamine B assay relative to control; details: RPMI-8226, 48 h, read-out: Activity
[9] = tested on: HOP-92; experiment: Growth inhibition of human HOP92 cells assessed as cell growth at 10^-7 M incubated for 48 hrs by sulforhodamine B assay relative to control; details: HOP-92, 48 h, read-out: Activity
[10] = tested on: HCC 2998; experiment: Growth inhibition of human HCC2998 cells assessed as cell growth at 10^-7 M incubated for 48 hrs by sulforhodamine B assay relative to control; details: HCC 2998, 48 h, read-out: Activity
[11] = tested on: KM12; experiment: Growth inhibition of human KM12 cells assessed as cell growth at 10^-7 M incubated for 48 hrs by sulforhodamine B assay relative to control; details: KM12, 48 h, read-out: Activity
[12] = tested on: SK-MEL-28; experiment: Growth inhibition of human SK-MEL-28 cells assessed as cell growth at 10^-7 M incubated for 48 hrs by sulforhodamine B assay relative to control; details: SK-MEL-28, 48 h, read-out: Activity
[13] = tested on: PC-3; experiment: Growth inhibition of human PC3 cells assessed as cell growth at 10^-7 M incubated for 48 hrs by sulforhodamine B assay relative to control; details: PC-3, 48 h, read-out: Activity
[14] = tested on: DU-145; experiment: Growth inhibition of human DU145 cells assessed as cell growth at 10^-7 M incubated for 48 hrs by sulforhodamine B assay relative to control; details: DU-145, 48 h, read-out: Activity
[15] = tested on: HCT-15; experiment: Growth inhibition of human HCT15 cells assessed as cell growth at 10^-6 M incubated for 48 hrs by sulforhodamine B assay relative to control; details: HCT-15, 48 h, read-out: Activity
[16] = tested on: HT-29; experiment: Growth inhibition of human HT-29 cells assessed as cell growth at 10^-6 M incubated for 48 hrs by sulforhodamine B assay relative to control; details: HT-29, 48 h, read-out: Activity
[17] = tested on: SNB-19; experiment: Growth inhibition of human SNB19 cells assessed as cell growth at 10^-6 M incubated for 48 hrs by sulforhodamine B assay relative to control; details: SNB-19, 48 h, read-out: Activity
[18] = tested on: U-251; experiment: Growth inhibition of human U251 cells assessed as cell growth at 10^-6 M incubated for 48 hrs by sulforhodamine B assay relative to control; details: U-251, 48 h, read-out: Activity
[19] = tested on: CCRF-CEM; experiment: Growth inhibition of human CCRF-CEM cells assessed as cell growth at 10^-5 M incubated for 48 hrs by sulforhodamine B assay relative to control; details: read-out: Activity
[20] = tested on: K562; experiment: Growth inhibition of human K562 cells assessed as cell growth at 10^-5 M incubated for 48 hrs by sulforhodamine B assay relative to control; details: K562, 48 h, read-out: Activity
[21] = tested on: SR; experiment: Growth inhibition of human SR cells assessed as cell growth at 10^-5 M incubated for 48 hrs by sulforhodamine B assay relative to control; details: read-out: Activity
[22] = tested on: HCC 2998; experiment: Growth inhibition of human HCC2998 cells assessed as cell growth at 10^-5 M incubated for 48 hrs by sulforhodamine B assay relative to control; details: HCC 2998, 48 h, read-out: Activity
[23] = tested on: SF-268; experiment: Growth inhibition of human SF268 cells assessed as cell growth at 10^-5 M incubated for 48 hrs by sulforhodamine B assay relative to control; details: SF-268, 48 h, read-out: Activity
[24] = tested on: U-251; experiment: Growth inhibition of human U251 cells assessed as cell growth at 10^-5 M incubated for 48 hrs by sulforhodamine B assay relative to control; details: U-251, 48 h, read-out: Activity
[25] = tested on: MDA-MB-435; experiment: Growth inhibition of human MDA-MB-435 cells assessed as cell growth at 10^-5 M incubated for 48 hrs by sulforhodamine B assay relative to control; details: MDA-MB-435, 48 h, read-out: Activity
[26] = tested on: MCF7; experiment: Growth inhibition of human MCF7 cells assessed as cell growth at 10^-5 M incubated for 48 hrs by sulforhodamine B assay relative to control; details: MCF7, 48 h, read-out: Activity
[27] = tested on: Hs-578T; experiment: Growth inhibition of human Hs 578T cells assessed as cell growth at 10^-5 M incubated for 48 hrs by sulforhodamine B assay relative to control; details: read-out: Activity
[28] = tested on: BT-549; experiment: Growth inhibition of human BT549 cells assessed as cell growth at 10^-5 M incubated for 48 hrs by sulforhodamine B assay relative to control; details: BT-549, 48 h, read-out: Activity
[29] = tested on: MDA-MB-468; experiment: Growth inhibition of human MDA-MB-468 cells assessed as cell growth at 10^-5 M incubated for 48 hrs by sulforhodamine B assay relative to control; details: MDA-MB-468, 48 h, read-out: Activity
[30] = tested on: K562; experiment: Growth inhibition of human K562 cells assessed as cell growth at 10^-4 M incubated for 48 hrs by sulforhodamine B assay relative to control; details: K562, 48 h, read-out: Activity
[31] = tested on: SR; experiment: Growth inhibition of human SR cells assessed as cell growth at 10^-4 M incubated for 48 hrs by sulforhodamine B assay relative to control; details: read-out: Activity
[32] = tested on: EKVX; experiment: Growth inhibition of human EKVX cells assessed as cell growth at 10^-4 M incubated for 48 hrs by sulforhodamine B assay relative to control; details: read-out: Activity
[33] = tested on: HCC 2998; experiment: Growth inhibition of human HCC2998 cells assessed as cell growth at 10^-4 M incubated for 48 hrs by sulforhodamine B assay relative to control; details: HCC 2998, 48 h, read-out: Activity
[34] = tested on: MDA-MB-435; experiment: Growth inhibition of human MDA-MB-435 cells assessed as cell growth at 10^-4 M incubated for 48 hrs by sulforhodamine B assay relative to control; details: MDA-MB-435, 48 h, read-out: Activity
[35] = tested on: NCI/ADR-RES; experiment: Growth inhibition of human NCI/ADR-RES cells assessed as cell growth at 10^-4 M incubated for 48 hrs by sulforhodamine B assay relative to control; details: read-out: Activity

CCCCOc1nc2ccccc2cc1C1CNC(=O)c2ccccc2N1 (stereo not given)
growth at 0.01 µM [1]: 90%
growth at 0.01 µM [2]: 101%
growth at 0.01 µM [3]: 95%
growth at 0.01 µM [4]: 98%
growth at 0.01 µM [5]: 88%
growth at 0.01 µM [6]: 100%
growth at 0.01 µM [7]: 98%
growth at 0.1 µM [8]: 98%
growth at 0.1 µM [9]: 80%
growth at 0.1 µM [10]: 93%
growth at 0.1 µM [11]: 98%
growth at 0.1 µM [12]: 98%
growth at 0.1 µM [13]: 97%
growth at 0.1 µM [14]: 101%
growth at 1 µM [15]: 69%
growth at 1 µM [16]: 98%
growth at 1 µM [17]: 95%
growth at 1 µM [18]: 85%
growth at 10 µM [19]: 11%
growth at 10 µM [20]: 7%
growth at 10 µM [21]: 1%
growth at 10 µM [22]: 15%
growth at 10 µM [23]: 31%
growth at 10 µM [24]: 12%
growth at 10 µM [25]: -58%
growth at 10 µM [26]: 11%
growth at 10 µM [27]: 28%
growth at 10 µM [28]: 36%
growth at 10 µM [29]: -10%
growth at 100 µM [30]: -25%
growth at 100 µM [31]: -25%
growth at 100 µM [32]: -3%
growth at 100 µM [33]: -20%
growth at 100 µM [34]: -74%
growth at 100 µM [35]: -50%
